For 36 molecules, IC50 and IC90 results are on record in ChEMBL document CHEMBL4483862, “Open-source discovery of chemical leads for next-generation chemoprotective antimalarials” (2018).

This experiment has as its system Plasmodium berghei. In words: Luciferase/luciferin-expressing antifolate-resistant parasites were used to infect a culture of HepG2 cells that were pre-incubated with compounds. Infected hepatocytes emit light due to the luciferase reaction. Assay results are presented as the percent inhibition of light emission compared to control. […]. Particulars: sporozoite; for IC90: read-out: LUCIFERASE INFECTION ASSAY - IC90. In kind it is functional.

Where [1] appears, read: read-out: LUCIFERASE INFECTION ASSAY - IC50.

Regarding `CC(Oc1ccc2ccc(=O)oc2c1)C(=O)N1CCc2ccccc21` (configuration not stated), the IC90 is 6.27 µM. Moreover, the 50% inhibitory concentration (IC50) (PBLUC_HILL_SLOPE 3.92, PBLUC_R_SQUARED 0.713, read-out: LUCIFERASE INFECTION ASSAY - IC50) came out at 3.58 µM.

Turning to `CCN(CC(O)COc1ccccc1-c1ccccc1)C1CCCCC1` (configuration not stated), the concentration for an effect of 90% (IC90) was determined as 9.13 µM. Moreover, the IC50 (HEPG2TOX_HILL_SLOPE 6.72, HEPG2TOX_R_SQUARED 0.0493, PBLUC_HILL_SLOPE 495, PBLUC_R_SQUARED 0.169, read-out: LUCIFERASE INFECTION ASSAY - IC50) was found to be 9.09 µM.

For `CCOC(=O)/C(=N\Nc1sc(C(=O)OCC)c(C)c1C(=O)OCC)C(=O)c1ccccc1`, the concentration for an effect of 90% (IC90) was determined as 9.2 µM. Further, the half-maximal inhibitory concentration (IC50) under setting [1] was determined as 7.51 µM.

In the case of `Clc1cccc(Sc2ccc(-c3ccccn3)s2)c1`, the IC90 is over 10.9 µM. Moreover, the 50% inhibitory concentration (IC50) under setting [1] is over 10.9 µM.

Take `c1ccc2c(Sc3ncnc4sccc34)cccc2c1`: the IC90 was over 11.2 µM. Besides, where the note is “PBLUC_HILL_SLOPE 9.33, PBLUC_R_SQUARED 0.332, read-out: LUCIFERASE INFECTION ASSAY - IC50”, the IC50 is over 11.2 µM.

Consider `CCOc1ccc(CCC2CCN(C(=O)Cn3c(=O)[nH]c(=O)c4ccccc43)CC2)cc1`, for which the IC90 was over 10 µM. Moreover, the IC50 (HEPG2TOX_HILL_SLOPE 1.65, HEPG2TOX_R_SQUARED 0.957, PBLUC_HILL_SLOPE 2.43, PBLUC_R_SQUARED 0.244, read-out: LUCIFERASE INFECTION ASSAY - IC50) turned out to be 5.37 µM.

With `O=C1Nc2ccc(Cl)cc2/C1=C/c1nn(Cc2ccccc2)cc1-c1cccnc1`, the 90% effect concentration (IC90) was over 10 µM. In addition, the IC50 (FFLUC_HILL_SLOPE 9.69, FFLUC_R_SQUARED 0.424, PBLUC_HILL_SLOPE 9.27, PBLUC_R_SQUARED 0.306, read-out: LUCIFERASE INFECTION ASSAY - IC50) came out at 8.59 µM.

`Cc1cc(NC(=S)NNC(=O)c2cccnc2Oc2ccccc2)ccc1Br`: the IC90 is over 7.22 µM. Besides, the half-inhibitory concentration (IC50) under setting [1] was over 7.22 µM.

`COc1cccc(OC)c1C(=O)Nc1cc2c(c([N+](=O)[O-])c1C)C(C)(C)CC2(C)C`: the IC90 was determined as 6.98 µM. The IC50 (FFLUC_HILL_SLOPE 10.9, FFLUC_R_SQUARED 0.163, HEPG2TOX_HILL_SLOPE 1.05, HEPG2TOX_R_SQUARED 0.731, PBLUC_HILL_SLOPE 1.82, PBLUC_R_SQUARED 0.597, read-out: LUCIFERASE INFECTION ASSAY - IC50) is 2.09 µM.

For the molecule `N=C(NS(=O)(=O)c1cc(C(F)(F)F)cc(C(F)(F)F)c1)c1ccc(Cl)cc1`, the IC90 was over 7.66 µM. Besides, the IC50 (HEPG2TOX_HILL_SLOPE 0.0636, HEPG2TOX_R_SQUARED 0.0519, read-out: LUCIFERASE INFECTION ASSAY - IC50) is over 7.66 µM.

Take `Cc1ccc2nc(NC(=O)C3CCCCC3)c(C(=O)NC3CCCCC3)n2c1`: the IC90 was over 8.63 µM. In addition, the IC50 (HEPG2TOX_HILL_SLOPE 0.0875, HEPG2TOX_R_SQUARED 0.133, PBLUC_HILL_SLOPE 0.199, PBLUC_R_SQUARED 0.0366, read-out: LUCIFERASE INFECTION ASSAY - IC50) is over 8.63 µM.

Turning to `Cc1cc(Cl)ccc1OCCCC(=O)NCCn1c(C)nc2ccccc21`, the IC90 is over 10 µM. For the same molecule, the 50% inhibitory concentration (IC50) (PBLUC_HILL_SLOPE 11.5, PBLUC_R_SQUARED 0.538, read-out: LUCIFERASE INFECTION ASSAY - IC50) is 9.27 µM.

With `CSc1nnc(SC2=CC(=O)CC(c3ccccc3)C2)s1` (configuration not stated), the 90% effect concentration (IC90) is over 9.87 µM. Also, the IC50 (FFLUC_HILL_SLOPE 1.55, FFLUC_R_SQUARED 0.208, HEPG2TOX_HILL_SLOPE 8.38, HEPG2TOX_R_SQUARED 0.886, read-out: LUCIFERASE INFECTION ASSAY - IC50) is over 9.87 µM.

Consider `O=C(Nc1nonc1-c1cccs1)c1sc2ccccc2c1Cl`, for which the IC90 stood at 3.36 µM. Also, the half-inhibitory concentration (IC50) (HEPG2TOX_HILL_SLOPE 3.76, HEPG2TOX_R_SQUARED 0.735, PBLUC_HILL_SLOPE 21.7, PBLUC_R_SQUARED 0.795, read-out: LUCIFERASE INFECTION ASSAY - IC50) is 3.04 µM.

For `O=C(Nc1nc(-c2ccc(Cl)cc2Cl)cs1)C1CCN(c2ccc(Cl)nn2)CC1`, the 90% effect concentration (IC90) was over 10 µM. Under setting [1], the 50% inhibitory concentration (IC50) is over 10 µM.

With `COc1cccc(N(C(=O)c2ccc3c(c2)OCO3)c2nc(-c3ccc(Cl)cc3Cl)cs2)c1`, the IC90 was over 10 µM. Also, the concentration for half-maximal inhibition (IC50) (FFLUC_HILL_SLOPE 8.73, FFLUC_R_SQUARED 0.44, PBLUC_HILL_SLOPE 14.1, PBLUC_R_SQUARED 0.181, read-out: LUCIFERASE INFECTION ASSAY - IC50) was 8.64 µM.

With `Cc1cc(C(=O)COC(=O)c2ccccc2N/C=C/C(=O)C(F)(F)F)c(C)n1CC1CCCO1` (configuration not stated), the IC90 was over 10 µM. In addition, where the note is “FFLUC_HILL_SLOPE 1.17, FFLUC_R_SQUARED 0.844, PBLUC_HILL_SLOPE 1.67, PBLUC_R_SQUARED 0.404, read-out: LUCIFERASE INFECTION ASSAY - IC50”, the IC50 was 3.35 µM.

As to `CCOc1cc(/C=C/c2ccc3cccc(O)c3n2)cc(Br)c1O`, the 90% effect concentration (IC90) is 3.78 µM. The 50% inhibitory concentration (IC50) under setting [1] turned out to be 3.28 µM.

As to `COc1ccc(-c2cnc3cnc(-c4ccc(C(=O)NC5CC5)cc4)cn23)cc1`, the IC90 came to 3.59 µM. Besides, the IC50 (PBLUC_HILL_SLOPE 9.57, PBLUC_R_SQUARED 0.525, read-out: LUCIFERASE INFECTION ASSAY - IC50) is 2.85 µM.

Take `CC(C)c1cccc(Nc2ccc3nnc(C(F)(F)F)n3n2)c1`: the IC90 is over 10 µM. In addition, under setting [1], the 50% inhibitory concentration (IC50) was over 10 µM.

As to `O=C(NCCN1CCc2ccccc2C1)c1cc2ccccc2cc1O`, the concentration for an effect of 90% (IC90) was 3.77 µM. Besides, the half-inhibitory concentration (IC50) (PBLUC_HILL_SLOPE 16.8, PBLUC_R_SQUARED 0.317, read-out: LUCIFERASE INFECTION ASSAY - IC50) was 3.31 µM.

As to `O=C(NCC#Cc1ccccc1)c1cccc2cccnc12`, the concentration for an effect of 90% (IC90) was over 10 µM. Moreover, under setting [1], the IC50 was over 10 µM.

With `Cc1oc(-c2ccc(Cl)cc2)cc1C(=O)Nc1cccc(C(F)(F)F)c1`, the 90% effect concentration (IC90) is over 8.69 µM. For the same molecule, the half-inhibitory concentration (IC50) under setting [1] was over 8.69 µM.

As to `CCOC(=O)c1c(C)noc1/C(C)=N/Nc1cc(C(F)(F)F)cc(C(F)(F)F)c1`, the IC90 is over 7.8 µM. Also, the half-maximal inhibitory concentration (IC50) (FFLUC_HILL_SLOPE 2.91, FFLUC_R_SQUARED 0.779, PBLUC_HILL_SLOPE 12.4, PBLUC_R_SQUARED 0.288, read-out: LUCIFERASE INFECTION ASSAY - IC50) is over 7.8 µM.

In the case of `OCc1ccc(-c2ccc3ncc(-c4cccc(CO)c4)n3n2)cc1`, the IC90 was 2.83 µM. Under “HEPG2TOX_HILL_SLOPE 2.34, HEPG2TOX_R_SQUARED 0.973, PBLUC_HILL_SLOPE 2.94, PBLUC_R_SQUARED 0.59, read-out: LUCIFERASE INFECTION ASSAY - IC50”, the half-inhibitory concentration (IC50) was determined as 1.34 µM.

For `CCCS(=O)(=O)/C(C#N)=N/Nc1cc(C(F)(F)F)cc(C(F)(F)F)c1`, the IC90 stood at 4.41 µM. Further, the IC50 (PBLUC_HILL_SLOPE 6.87, PBLUC_R_SQUARED 0.748, read-out: LUCIFERASE INFECTION ASSAY - IC50) came out at 3.21 µM.

Turning to `O=C(c1ccc(=O)[nH]c1)N1CCN(Cc2nc(=O)c3ccccc3[nH]2)CC1`, the concentration for an effect of 90% (IC90) was over 10 µM. Besides, under setting [1], the IC50 is over 10 µM.

Take `CC(C)CNC(=O)NC(=O)COC(=O)c1c2c(nc3ccccc13)CCCCC2`: the 90% effect concentration (IC90) stood at 7.96 µM. Also, the IC50 under setting [1] was determined as 3.9 µM.

Turning to `Clc1ccc(/C=C/c2cnc3ccccc3n2)cc1`, the IC90 was over 12.4 µM. In addition, the IC50 (PBLUC_HILL_SLOPE 0.854, PBLUC_R_SQUARED 0.483, read-out: LUCIFERASE INFECTION ASSAY - IC50) amounted to 2.04 µM.

As for `O=C(Nc1nnc(-c2ccco2)s1)c1csc(COc2ccc(Cl)cc2)n1`, the IC90 was over 10 µM. For the same molecule, the IC50 (PBLUC_HILL_SLOPE 1.45, PBLUC_R_SQUARED 0.301, read-out: LUCIFERASE INFECTION ASSAY - IC50) amounted to 4.28 µM.

As to `CN(C)CCNC(=O)c1ccc(-c2cn3c(-c4ccc5ncccc5c4)cnc3cn2)cc1`, the 90% effect concentration (IC90) was over 7.56 µM. Further, the half-inhibitory concentration (IC50) (HEPG2TOX_HILL_SLOPE 1.62, HEPG2TOX_R_SQUARED 0.706, PBLUC_HILL_SLOPE 13, PBLUC_R_SQUARED 0.311, read-out: LUCIFERASE INFECTION ASSAY - IC50) stood at 6.52 µM.

As to `c1nc(Nc2ccc(C34CC5CC(CC(C5)C3)C4)cc2)c2ccsc2n1`, the 90% effect concentration (IC90) is 0.884 µM. Also, the IC50 (PBLUC_HILL_SLOPE 24.2, PBLUC_R_SQUARED 0.39, read-out: LUCIFERASE INFECTION ASSAY - IC50) was 0.808 µM.

Turning to `Clc1ccc(CN=C(Nc2ccccc2)NC2CCCCC2)cc1`, the IC90 turned out to be 9.45 µM. For the same molecule, the 50% inhibitory concentration (IC50) (PBLUC_HILL_SLOPE 18.9, PBLUC_R_SQUARED 0.472, read-out: LUCIFERASE INFECTION ASSAY - IC50) was determined as 8.42 µM.

For `Cc1c(-c2ccccc2)sc2ncnc(NCc3nnc4ccccn34)c12`, the IC90 is over 10 µM. Where the note is “HEPG2TOX_HILL_SLOPE 2.41, HEPG2TOX_R_SQUARED 0.925, PBLUC_HILL_SLOPE 1.56, PBLUC_R_SQUARED 0.71, read-out: LUCIFERASE INFECTION ASSAY - IC50”, the IC50 is 2.86 µM.

Take `O=C(Nc1ccc(N2CCCCCC2)cc1)c1ccc[nH]1`: the IC90 worked out at 2.88 µM. For the setting “PBLUC_HILL_SLOPE 1.36, PBLUC_R_SQUARED 0.768, read-out: LUCIFERASE INFECTION ASSAY - IC50”, the IC50 was determined as 0.569 µM.

Regarding `COc1cccc(-c2cc3c(Nc4cccc(C(C)C)c4)nccc3[nH]2)c1`, the IC90 is 2.26 µM. The IC50 (HEPG2TOX_HILL_SLOPE 2.2, HEPG2TOX_R_SQUARED 0.959, PBLUC_HILL_SLOPE 4.36, PBLUC_R_SQUARED 0.354, read-out: LUCIFERASE INFECTION ASSAY - IC50) was 1.36 µM.

In general, IC50 refers to the concentration needed to halve the response being measured. The term IC90 denotes the concentration at which the effect reaches the 90% level.
